Columns and labels:
[1] = Solubility of finasteride polymorphic crystal forms; type: physicochemical; settings: 25° C.
Description: Finasteride Form I can be prepared by dissolving finasteride in glacial acetic acid (ca. 100 mg/ml) and adding water with stirring until the weight % of water equals or exceeds 84%. The resulting solid phase is collected by filtration and dried under vacuum and at about 50° C. […] The x-ray powder diffraction pattern is characterized by d-spacings of 6.44, 5.69, 5.36, 4.89, 4.55, 4.31, 3.85, 3.59 and 3.14. […] The solubilities in water and cyclohexane at 25° C. are 0.05+0.02 and 0.27+0.05 mg/gm respectively. In addition, Form I of finasteride can be prepared by recrystallization from dry (H2O<1 mg/ml) ethyl acetate and isopropyl acetate. The isolated solids are dried under vacuum at about 50° C. and have the same physical characterization data as given above.
Form II of finasteride can be prepared by dissolving finasteride in glacial acetic acid (ca. 100 mg/ml) and adding water with stirring until the weight % of water equals about 75% but not in excess of 80%. The resulting solid phase is collected by filtration and dried under vacuum and at about 100° C. […] The x-ray powder diffraction pattern is characterized by d-spacings of 14.09, 10.36, 7.92, 7.18, 6.40, 5.93, 5.66, 5.31, 4.68, 3.90, 3.60 and 3.25. […] The solubilities in water and cyclohexane at 25° C. are 0.16+0.02 and 0.42+0.05 mg/gm respectively. In addition, Form II of finasteride can be prepared by recrystallization from ethyl acetate containing between 2 to 30 mg/ml of water and isopropyl acetate containing between 2 to 15 mg/ml of water. The isolated solids are dried under vacuum at about 80° C. and have the same physical characterization data as given above. Form II can also be prepared by heating Form I up to about 150° C., holding for about one hour and cooling back to room temperature. The Form II prepared in this manner has the same physical characterization data as given above.

[2] = test system: DHT content in scalp tissue; experiment: DHT content in scalp tissue after oral finasteride in men with male pattern baldness; type: in vivo; settings: orally for 6 weeks, 0.2 mg/day, 1.0 mg/day and 5.0 mgs/day
Description: In another test, finasteride was orally administered for 6 weeks to men with male pattern baldness at doses of 0.2 mg/day, 1.0 mg/day and 5.0 mgs/day.

[3] = test system: hair growth (androgenic alopecia); experiment: Macrophotography and global photography procedure for detection of hair growth; type: in vivo, patients; settings: dosages below 5 mg/day per patient, for example 1 mg/day or 0.2 mg/day; "it can be shown"
Description: Location: ID card Haircount target area
In these clinical photographs, the only variable allowed is the haircount. Film emulsion, lighting, framing, exposure, and reproduction ratios are held constant.
1. The haircount area on the patient is prepared as follows: A small (˜1 mm) dot tattoo is placed at the beginning of the study at the leading edge of the bald area directly anterior to the center of the vertex bald spot, using a commercial tattooing machine or manually (needle and ink). An area approximately one square inch in size, centered at the tattoo at the leading edge of the balding area, is clipped short (˜2 mm). Cut hairs are removed from the area to be photographed, using tape. Compressed air and/or ethanol wipes may also be used to facilitate removal of cut hairs.
2. […]
A trained technician places a transparency over the photographic print and, using a felt tip pen, places a black dot over each visible hair. The dot map transparency is then counted using image analysis with computer assistance.
Photographs are coded with a random number corresponding to study site, visit number and patient allocation number to insure blinding to time. At Month 6, baseline and Month 6 photographs are counted and data analyzed for interim analysis. At Month 12, baseline, Month 6 and Month 12 photographs are counted and data analyzed for the primary endpoint. […]

Compound | solubility in cyclohexane [1] | solubility in water [1] | DHT content in scalp tissue [2] | hair growth / treatment of androgenic alopecia [3]
CC(C)(C)NC(=O)[C@H]1CCC2C3CCC4NC(=O)C=C[C@]4(C)C3CC[C@@]21C (stereo partly drawn) [Form I, 17β-(N-tert-butylcarbamoyl)-4-aza-5α-androst-1-ene-3-one] | 0.27 ± 0.05 mg/gm | 0.05 ± 0.02 mg/gm | – | –
CC(C)(C)NC(=O)[C@H]1CCC2C3CCC4NC(=O)C=C[C@]4(C)C3CC[C@@]21C (stereo partly drawn) [Form II, 17β-(N-tert-butylcarbamoyl)-4-aza-5α-androst-1-ene-3-one] | 0.42 ± 0.05 mg/gm | 0.16 ± 0.02 mg/gm | – | –
CC(C)(C)NC(=O)[C@H]1CC[C@H]2[C@@H]3CC[C@H]4NC(=O)C=C[C@]4(C)[C@H]3CC[C@]12C [finasteride, 17β-(N-tert-butylcarbamoyl)-4-aza-5α-androst-1-ene-3-one] | – | – | significant reduction | promote hair growth

From patent US6355649B1, “Method of treating seborrhea with 5-α reductase inhibitors” (priority 1993, dated 2002)
